Experimental data taken from patent publication US20190194209A1, “PYRAZOLE CARBOXAMIDE COMPOUNDS AND METHODS OF USE” (Genentech, Inc., priority 2014, published 2019).
pKi: −log10 of the molar value.

Target: T1, full length human wildtype Btk (Homo sapiens, UniProt Q06187)
T1 construct: V5 (C); 6xHis (C); made in house; host or cells: Sf9 cells (baculovirus, pFastBac)
Assay: Biochemical Btk Kinase Assay (Example 901)
Settings: read-out: BTK LC3K (Ki)
Protocol: Formula I compounds were tested by a standard biochemical Btk, Kinase Assay (Example 901). A generalized procedure for a standard biochemical Btk, Kinase Assay that can be used to test Formula I compounds is as follows. A master mix minus Btk enzyme is prepared containing 1× Cell Signaling kinase buffer (25 mM Tris-HCl, pH 7.5, 5 mM beta-glycerophosphate, 2 mM dithiothreitol, 0.1 mM Na3VO4, 10 mM MgCl2), 0.5 μM Promega PTK Biotinylated peptide substrate 2, and 0.01% BSA. A master mix plus Btk enzyme is prepared containing 1× Cell Signaling kinase buffer, 0.5 μM (micromolar) PTK Biotinylated peptide substrate 2, 0.01% BSA, and 100 ng/well (0.06 mU/well) Btk enzyme. Btk enzyme is prepared as follows: full length human wildtype Btk (accession number NM-000061) with a C-terminal V5 and 6×His tag was subcloned into pFastBac® vector (Invitrogen/Life Technologies) for making baculovirus carrying this epitope-tagged Btk. Generation of baculovirus is done based on Invitrogen's instructions detailed in its published protocol “Bac-to-Bac Baculovirus Expression Systems” (Invitrogen/Life Technologies, Cat. Nos. 10359-016 and 10608-016). Passage 3 virus is used to infect Sf9 cells to overexpress the recombinant Btk protein. The Btk protein is then purified to homogeneity using Ni-NTA column. The purity of the final protein preparation is greater than 95% based on the sensitive Sypro-Ruby staining. A solution of 200 μM ATP is prepared in water and adjusted to pH 7.4 with 1N NaOH. A quantity of 1.25 μL (microliter) of compounds in 5% DMSO is transferred to a 96-well 2 area Costar polystyrene plate. Compounds are tested singly and with an 11-point dose-responsive curve (starting concentration is 10 μM; 1:2 dilution). A quantity of 18.75 μL of master mix minus enzyme (as a negative control) and master mix plus enzyme is transferred to appropriate wells in 96-well 2 area costar polystyrene plate. 5 μL of 200 μM ATP is added to that mixture in the 96-well 2 area Costar polystyrene plate for final ATP concentration of 40 μM. The reaction is allowed to incubate for 1 hour at room temperature. The reaction is stopped with Perkin Elmer 1× detection buffer containing 30 mM EDTA, 20 nM SA-APC, and 1 nM PT66 Ab. The plate is read using time-resolved fluorescence with a Perkin Elmer Envision using excitation filter 330 nm, emission filter 665 nm, and 2nd emission filter 615 nm. IC50 values are subsequently calculated. Alternatively, the Lanthascreen assay can be used to evaluate Btk activity through quantification of its phosphorylated peptide product. The FRET (Fluorescence Resonance Energy Transfer) that occurs between the fluorescein on the peptide product and the terbium on the detection antibody decreases with the addition of inhibitors of Btk that reduce the phosphorylation of the peptide. In a final reaction volume of 25 μL (microliters), Btk (h) (0.1 ng/25 μl reaction) is incubated with 50 mM Hepes pH 7.5, 10 mM MgCl2, 2 mM MnCl2, 2 mM DTT, 0.2 mM NaVO4, 0.01% BSA, and 0.4 uM fluorescein poly-GAT. The reaction is initiated by the addition of ATP to 25 μM (micromolar) the Km of ATP. After incubation for 60 minutes at room temperature, the reaction is stopped by the addition of a final concentration of 2 nM Tb-PY20 detection antibody in 60 mM EDTA for 30 minutes at room temperature. Detection is determined on a Perkin Elmer Envision with 340 nm excitation and emission at 495 nm and 520 nm. Exemplary Btk inhibition […] values are in Table 1.

T1 sequence (Q06187 whole entry): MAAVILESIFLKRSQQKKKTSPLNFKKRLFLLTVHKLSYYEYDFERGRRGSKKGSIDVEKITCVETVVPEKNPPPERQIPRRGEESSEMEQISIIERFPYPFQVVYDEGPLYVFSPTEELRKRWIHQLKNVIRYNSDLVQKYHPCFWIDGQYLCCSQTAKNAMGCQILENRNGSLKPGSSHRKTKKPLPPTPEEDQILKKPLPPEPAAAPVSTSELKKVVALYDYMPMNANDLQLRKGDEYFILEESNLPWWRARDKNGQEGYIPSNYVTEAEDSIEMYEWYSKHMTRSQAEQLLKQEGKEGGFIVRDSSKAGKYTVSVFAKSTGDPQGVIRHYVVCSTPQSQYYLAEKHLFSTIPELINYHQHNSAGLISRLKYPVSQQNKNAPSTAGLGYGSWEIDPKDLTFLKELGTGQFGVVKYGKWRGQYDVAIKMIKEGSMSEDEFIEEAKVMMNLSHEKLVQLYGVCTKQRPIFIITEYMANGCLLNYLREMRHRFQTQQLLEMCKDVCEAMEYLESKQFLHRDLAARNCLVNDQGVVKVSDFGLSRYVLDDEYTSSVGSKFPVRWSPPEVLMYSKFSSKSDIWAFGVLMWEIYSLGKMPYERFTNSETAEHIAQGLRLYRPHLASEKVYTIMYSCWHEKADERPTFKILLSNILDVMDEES

Row | Structure (SMILES) | pKi
1 | CN1CCN(c2cc(-c3nn(-c4ccnc(-n5ncc6cc(C(C)(C)C)cc(F)c6c5=O)c4CO)cc3C(N)=O)ccn2)CC1 [Example 136, 1-[2-(6-tert-butyl-8-fluoro-1-oxo-phthalazin-2-yl)-3-(hydroxymethyl)-4-pyridyl]-3-[2-(4-methylpiperazin-1-yl)-4-pyridyl]pyrazole-4-carboxamide] | 7.29
2 | CC(C)(C)c1cc(F)c2c(=O)n(-c3nccc(-n4cc(C(N)=O)c(-c5ccc(CO)cc5)n4)c3CO)ncc2c1 [Example 141, 1-[2-(6-tert-butyl-8-fluoro-1-oxo-phthalazin-2-yl)-3-(hydroxymethyl)-4-pyridyl]-3-[4-(hydroxymethyl)phenyl]pyrazole-4-carboxamide] | 6.81
3 | CC(C)(C)c1cc(F)c2c(=O)n(-c3nccc(-n4cc(C(N)=O)c(-c5cnc(N)cn5)n4)c3CO)ncc2c1 [Example 129, 3-(5-aminopyrazin-2-yl)-1-[2-(6-tert-butyl-8-fluoro-1-oxo-phthalazin-2-yl)-3-(hydroxymethyl)-4-pyridyl]pyrazole-4-carboxamide] | 6.98
4 | CC(=O)Nc1ccc(-c2nn(-c3ccnc(-n4ncc5cc(C(C)(C)C)cc(F)c5c4=O)c3CO)cc2C(N)=O)cn1 [Example 137, 3-(6-acetamido-3-pyridyl)-1-[2-(6-tert-butyl-8-fluoro-1-oxo-phthalazin-2-yl)-3-(hydroxymethyl)-4-pyridyl]pyrazole-4-carboxamide] | 6.94
5 | CC(=O)Nc1nn(-c2ccnc(N3CCn4c(cc5c4CC(C)(C)C5)C3=O)c2CO)cc1C(N)=O [Example 124, 3-acetamido-1-[2-(7,7-dimethyl-4-oxo-1,2,6,8-tetrahydrocyclopenta[3,4]pyrrolo[3,5-b]pyrazin-3-yl)-3-(hydroxymethyl)-4-pyridyl]pyrazole-4-carboxamide] | 7.86
6 | CC(C)(C)c1cc(F)c2c(=O)n(-c3nccc(-n4cc(C(N)=O)c(-c5ccccc5)n4)c3CO)ncc2c1 [Example 114, 1-[2-(6-tert-butyl-8-fluoro-1-oxo-phthalazin-2-yl)-3-(hydroxymethyl)-4-pyridyl]-3-phenyl-pyrazole-4-carboxamide] | 6.74
7 | CN1CCN(C(=O)c2ccc(-c3nn(-c4ccnc(-n5ncc6cc(C(C)(C)C)cc(F)c6c5=O)c4CO)cc3C(N)=O)cc2)CC1 [Example 131, 1-[2-(6-tert-butyl-8-fluoro-1-oxo-phthalazin-2-yl)-3-(hydroxymethyl)-4-pyridyl]-3-[4-(4-methylpiperazine-1-carbonyl)phenyl]pyrazole-4-carboxamide] | 6.84
8 | CC(C)(C)c1cc(F)c2c(=O)n(-c3nccc(-n4cc(C(N)=O)c(-c5ccc(CN)cc5)n4)c3CO)ncc2c1 [Example 133, 3-[4-(aminomethyl)phenyl]-1-[2-(6-tert-butyl-8-fluoro-1-oxo-phthalazin-2-yl)-3-(hydroxymethyl)-4-pyridyl]pyrazole-4-carboxamide] | 6.81
9 | CC1(C)Cc2cc3n(c2C1)CCN(c1nccc(-n2cc(C(N)=O)cn2)c1CO)C3=O [Example 113, 1-[2-(7,7-dimethyl-4-oxo-1,2,6,8-tetrahydrocyclopenta[3,4]pyrrolo[3,5-b]pyrazin-3-yl)-3-(hydroxymethyl)-4-pyridyl]pyrazole-4-carboxamide] | 6.91
10 | CC(C)(C)c1cc(F)c2c(=O)n(-c3nccc(-n4cc(C(N)=O)c(-c5cnc6ccccc6c5)n4)c3CO)ncc2c1 [Example 140, 1-[2-(6-tert-butyl-8-fluoro-1-oxo-phthalazin-2-yl)-3-(hydroxymethyl)-4-pyridyl]-3-(3-quinolyl)pyrazole-4-carboxamide] | < 6.30
11 | C[C@H]1CN(C2COC2)CCN1c1ccc(Nc2nn(-c3ccnc(N4CCn5c(cc6c5CC(C)(C)C6)C4=O)c3CO)cc2C(N)=O)nc1 [Example 125, 1-[2-(7,7-dimethyl-4-oxo-1,2,6,8-tetrahydrocyclopenta[3,4]pyrrolo[3,5-b]pyrazin-3-yl)-3-(hydroxymethyl)-4-pyridyl]-3-[[5-[(2S)-2-methyl-4-(oxetan-3-yl)piperazin-1-yl]-2-pyridyl]amino]pyrazole-4-carboxamide] | 9.53
12 | CC(C)(C)c1cc(F)c2c(=O)n(-c3nccc(-n4cc(C(N)=O)c(-c5cncnc5)n4)c3CO)ncc2c1 [Example 142, 1-[2-(6-tert-butyl-8-fluoro-1-oxo-phthalazin-2-yl)-3-(hydroxymethyl)-4-pyridyl]-3-pyrimidin-5-yl-pyrazole-4-carboxamide] | 6.87
13 | CCCC(=O)Nc1nn(-c2ccnc(N3CCn4c(cc5c4CC(C)(C)C5)C3=O)c2CO)cc1C(N)=O [Example 128, 3-(butanoylamino)-1-[2-(7,7-dimethyl-4-oxo-1,2,6,8-tetrahydrocyclopenta[3,4]pyrrolo[3,5-b]pyrazin-3-yl)-3-(hydroxymethyl)-4-pyridyl]pyrazole-4-carboxamide] | 7.47
14 | CC(C)(C)c1cc(F)c2c(=O)n(-c3nccc(-n4cc(C(N)=O)c(-c5cccnc5)n4)c3CO)ncc2c1 [Example 144, 1-[2-(6-tert-butyl-8-fluoro-1-oxo-phthalazin-2-yl)-3-(hydroxymethyl)-4-pyridyl]-3-(3-pyridyl)pyrazole-4-carboxamide] | 6.91
15 | CC(C)(C)c1cc(F)c2c(=O)n(-c3nccc(-n4cc(C(N)=O)c(-c5cnc6[nH]ccc6c5)n4)c3CO)ncc2c1 [Example 132, 1-[2-(6-tert-butyl-8-fluoro-1-oxo-phthalazin-2-yl)-3-(hydroxymethyl)-4-pyridyl]-3-(1H-pyrrolo[2,3-b]pyridin-5-yl)pyrazole-4-carboxamide] | < 6.30
16 | CC(C)(C)c1cc(F)c2c(=O)n(-c3nccc(-n4cc(C(N)=O)c(-c5ccc(O)nc5)n4)c3CO)ncc2c1 [Example 138, 1-[2-(6-tert-butyl-8-fluoro-1-oxo-phthalazin-2-yl)-3-(hydroxymethyl)-4-pyridyl]-3-(6-hydroxy-3-pyridyl)pyrazole-4-carboxamide] | 7.08
17 | CN1CCN(c2ccc(-c3nn(-c4ccnc(-n5ncc6cc(C(C)(C)C)cc(F)c6c5=O)c4CO)cc3C(N)=O)cn2)CC1 [Example 135, 1-[2-(6-tert-butyl-8-fluoro-1-oxo-phthalazin-2-yl)-3-(hydroxymethyl)-4-pyridyl]-3-[6-(4-methylpiperazin-1-yl)-3-pyridyl]pyrazole-4-carboxamide] | 7.81
18 | CC(C)(C)c1cc(F)c2c(=O)n(-c3nccc(-n4cc(C(N)=O)c(-c5ccncc5)n4)c3CO)ncc2c1 [Example 143, 1-[2-(6-tert-butyl-8-fluoro-1-oxo-phthalazin-2-yl)-3-(hydroxymethyl)-4-pyridyl]-3-(4-pyridyl)pyrazole-4-carboxamide] | 7.00
19 | CC(C)Cn1cc(-c2nn(-c3ccnc(-n4ncc5cc(C(C)(C)C)cc(F)c5c4=O)c3CO)cc2C(N)=O)cn1 [Example 134, 1-[2-(6-tert-butyl-8-fluoro-1-oxo-phthalazin-2-yl)-3-(hydroxymethyl)-4-pyridyl]-3-(1-isobutylpyrazol-4-yl)pyrazole-4-carboxamide] | 7.57
20 | CN(C)CCNC(=O)c1cccc(-c2nn(-c3ccnc(-n4ncc5cc(C(C)(C)C)cc(F)c5c4=O)c3CO)cc2C(N)=O)c1 [Example 130, 1-[2-(6-tert-butyl-8-fluoro-1-oxo-phthalazin-2-yl)-3-(hydroxymethyl)-4-pyridyl]-3-[3-[2-(dimethylamino)ethylcarbamoyl]phenyl]pyrazole-4-carboxamide] | 7.36
21 | CC(C)(C)c1cc(F)c2c(=O)n(-c3nccc(-n4cc(C(N)=O)c(-c5cncc(S(C)(=O)=O)c5)n4)c3CO)ncc2c1 [Example 139, 1-[2-(6-tert-butyl-8-fluoro-1-oxo-phthalazin-2-yl)-3-(hydroxymethyl)-4-pyridyl]-3-(5-methylsulfonyl-3-pyridyl)pyrazole-4-carboxamide] | < 6.30
